Laboratory results from patent US20140364483A1, “ALTERNATIVE SPLICING VARIANTS OF GENES ASSOCIATED WITH PROSTATE CANCER RISK AND SURVIVAL” (The George Washington University, priority 2011, published 2014).
d = 2'-deoxy (DNA); r = 2'-OH (RNA); {P} = phosphate

Assays:
Type in all cases: cell-based, human
MDA PCa 2b cells [1] = assay: Matrigel invasion after siRNA knockdown of splice variants; settings: AA PCa cell line MDA PCa 2b
Text: (§1) The predominant expression of the L variant and very little to no expression of the S variant in the CA PCa cell line is consistent with the CA patient samples (see PIK3CD in FIG. 4). SiRNA-mediated knockdown of the L variant in VCaP cells leads to a decrease in Matrigel invasion and a decrease in proliferation (FIG. 7A). By comparison, the AA PCa cell line MDA PCa 2b expresses both an L and S variant, and knockdown of the L variant leads to an increase in Matrigel invasion and an increase in proliferation (FIG. 7A). Since VCaP cells express very little to no S variant, targeted siRNA-mediated knockdown of this variant leads to no change in Matrigel invasion and proliferation (FIG. 7B). In contrast, targeted knockdown of the S variant in MDA PCa 2b cells leads to decreased Matrigel invasion and decreased proliferation (since the S variant is found almost exclusively in AA patient samples, it is referred to as the ‘AA variant’) (FIG. 7B). […] Analogous findings were obtained in MDA PCa 2b cells when the ratio of the ‘AA variant’ (S or b isoform) was increased over the ‘CA variant’ (L or an isoform) for the FGFR3, TSC2.
(§2) For RASGRP2, the long variant (with exon 10) is common to both AA and CA patients, whereas the short variant (without exon 10) is unique to AA. Targeted knockdown of the long splicing variant in VCaP cells reduced Matrigel invasion and an increase in proliferation (FIG. 8).

VCaP cells [2] = assay: as above; settings: CA PCa cell line VCaP
Text: as §1, §2

MDA PCa 2b cells [3] = assay: Cell proliferation after siRNA knockdown of splice variants; settings: AA PCa cell line MDA PCa 2b
Text: as §1, §2

VCaP cells [4] = assay: as above; settings: CA PCa cell line VCaP
Text: as §1, §2

AKT pathway = AKT pathway phosphorylation after knockdown of PIK3CD long variant
Text: Activation of AKT is known to promote cell growth and mRNA translation (FIG. 9a). When the expression of PIK3CD “long” variant is knocked down by siRNA targeting of Exon 23 in the VCaP cell line, which only expresses the long variant, there is a decrease of phosphorylation of AKT, compared to nonsense siRNA control, and also decrease of phosphorylation of downstream signaling proteins mTOR and S6 (FIG. 9b). […] In other words, increasing S/L variants proportion in MDA PCa 2b cells activates the AKT pathways.

[5] = VCaP cell line, compared to nonsense siRNA control

siRNA targeting RASGRP2 exon 10: siRNA duplex SEQ ID Nos. 40 and 41, sense 5′ GUGGAGCACAUCGAGAAGAdTdT 3′; long variant contains exon 10 (sense GUGGAGCACAUCGAGAAGATT; antisense UCUUCUCGAUGUGCUCCAC; sense: sugars from the 5' end r19 d2, backbone not given here; antisense: chemistry not given here)
Matrigel invasion (MDA PCa 2b cells [1]): opposite effect | Matrigel invasion (VCaP cells [2]): reduced | proliferation (MDA PCa 2b cells [3]): opposite effect | proliferation (VCaP cells [4]): increase

siPIK3CD-S: siRNA duplex SEQ ID Nos. 12 and 13, sense 5′ UGAGGGAGGCCCUGGAUCGAdTdT 3′; knocks down PIK3CD short variant (antisense UCGAUCCAGGGCCUCCCUCA; sense: RNA, 3' dTdT, backbone not given here; antisense: RNA, 5' {P}, 3' dTdT, backbone not given here)
Matrigel invasion (MDA PCa 2b cells [1]): decreased | Matrigel invasion (VCaP cells [2]): no change | proliferation (MDA PCa 2b cells [3]): decreased | proliferation (VCaP cells [4]): no change

siPIK3CD-ex23: siRNA duplex SEQ ID Nos. 4 and 5, sense 5′ CCAACAUCCAACUCAACAAdTdT 3′; knocks down PIK3CD long variant (antisense UUGUUGAGUUGGAUGUUGG; sense: RNA, 3' dTdT, backbone not given here; antisense: RNA, 5' {P}, 3' dTdT, backbone not given here)
Matrigel invasion (MDA PCa 2b cells [1]): increase | Matrigel invasion (VCaP cells [2]): decrease | proliferation (MDA PCa 2b cells [3]): increase | proliferation (VCaP cells [4]): decrease | AKT phosphorylation, both on Thr308 and Ser473 (AKT pathway; MDA PCa 2b cells): markedly increases | phosphorylation of mTOR and S6 (AKT pathway; MDA PCa 2b cells): increases | phosphorylation of AKT (AKT pathway; [5]): decrease | phosphorylation of downstream signaling proteins mTOR and S6 (AKT pathway; [5]): decrease
